The source of these data is patent US4987121A, “Erythropoietic factor” (Center for Innovative Technology, priority 1988, dated 1991).

Ends that are not written are not given here.

For one test, the system named is CFU-E. As to the kind of experiment: erythroid progenitor CFU-E assay, human bone marrow cells in methylcellulose culture. The note with it: for Potentiation of CFU-E(%): ANF analog 0.32 nM + Epo 250 mU/ml, relative to effect of α-ANF[1-28] (100%). The format is cell-based. The text has this: (§1) Utilization of cell culture techniques allowed for the detection of molecules other than Epo which act on erythropoietic precursor cells. […] The erythroid progenitor BFU-E and CFU-E assay was utilized for the in vitro studies by the following method:
(§2) (1) Collect bone marrow cells from normal human volunteers after obtaining informed consent.
(§3) (2) Suspend cells in α-medium containing 10% fetal calf serum.
(§4) (3) Separate by Ficoll-Hypaque gradient to obtain an enriched mononuclear cell population.
(§5) (4) Culture cells (5×10^4 per plate) in petri dishes using a methylcellulose technique (see, Iscove, J. Cell Physiol 83: 309, (1974)).
(§6) (5) Add Human Epo, available from the Toyoba Corp. of New York, N.Y., to the culture on day zero.
(§7) (6) Add ANF-like peptides on days zero, two, five, eight, and eleven.
(§8) In the absence of Epo, ANF has no effect on erythroid colony formation. In FIG. 1, the effects of α-ANF[1-28] alone and in conjunction with an added amount of Epo were studied. Human α-ANF[1-28] diluted in α-medium, obtained from the Peninsula Corporation, was added to the cultures every three days starting at day zero. Control cultures were supplemented with Phosphate Buffered Saline (PBS) alone. PBS is available from the GIBCO corporation of Grand Island, N.Y. Triplicate plates were incubated at 37° C. in a humidified atmosphere of 7% CO2 in air. On the eighth day, cell aggregates which contained more than seven erythroid cells were counted as CFU-E. On the fourteenth day, aggregates of forty cells or more were counted as BFU-E. Hemoglobinization of the cells was confirmed by using a Soret band and morphologically from stained smears. In FIG. 1, the number of observations is indicated in the bottom part of the bar. The standard estimates from mean (SEM) are indicated as error bars. Statistical significances were obtained by using Kruskal-Wallis Analysis of Variance (one way by ranks). Probabilities in FIGS. 1 and 2 are indicated by: 1*=p<0.05; 2*=p<0.01;3*=p<0.005; and 4*=p<0.001. […] The relative increase of Epo activity caused by the presence of ANF is the subject of this invention.

The subject of another test is BFU-E. Description: erythroid progenitor BFU-E assay, human bone marrow cells in methylcellulose culture. The format is cell-based. The conditions noted are these: for Potentiation of BFU-E(%): ANF analog 0.32 nM + Epo 250 mU/ml, relative to effect of α-ANF[1-28] (100%).
Source text: as §1, §2, §3, §4, §5, §6, §7, §8

For test [1], the system named is erythroid precursors (BFU-E and CFU-E). As to the kind of experiment: erythroid progenitor BFU-E and CFU-E assay (statements covering both progenitors). In kind it is cell-based, human. The note with it: for effect on the stimulatory effect of Epo on both BFU-E and CFU-E: ANF analog 0.32 nM + Epo 250 mU/ml; for potentiation of erythropoiesis versus concentration: with Epo.
Source text: as §1, §2, §3, §4, §5, §6, §7, §8
The numbers were determined using the lowest ANF concentration as a reference point in each group. There were six observations per group. […] The number values for BFU-E and CFU-E in a culture containing 0.25 U/ml Epo and 0.32 nM α-ANF[1-28] are different for FIGS. 1 and 2 because different human volunteer bone marrow donors were used for each study. The absolute numbers are not the focus of this invention, rather, the subject of this invention is the relative increase in the production of BFU-E and CFU-E caused by Epo in the presence of ANF.

The test system of a further test is peripheral blood BFU-E. As to the kind of experiment: peripheral blood BFU-E assay in the absence of T cells and macrophages. The note with it: for BFU-E/culture ± SEM: peripheral blood cells, T cells and macrophages removed. The format is cell-based, human. As for the experimental part: The cultures contained peripheral blood derived cells instead of bone marrow cells. After Ficoll-Hypaque separation, preparations from peripheral blood were further incubated in plastic dishes twice for thirty minutes to remove macrophages. The majority of T cells were removed by rosetting with sheep red blood cells, available from the Lampire Corporation of Pipersville, Pa., and centrifugation. The remaining T-cells were removed by incubating the cell suspension with Leu-1 antibody, available from Becton-Dickenson, Inc. of Mountain View, Calif., and rabbit complement. Less than 0.3% of macrophages and T cells could be detected in the remaining cell suspension. The probabilities in Table 1 are as follows: *=p<0.025 and **=p<0.005. There were three observations per group. As shown by Table 1, the number of peripheral blood derived BFU-E increased three fold in the presence 0.32 nM of α-ANF[1-28] in cultures containing 250 mU/ml of Epo and less than 0.3% of T cells and macrophages.

The mark [2] stands for this setting: in the presence of α-ANF[1-28] 0.32 nM and Epo 250 mU/ml.

On to “α-ANF [1-11] (SLRRSSCFGGR; Atrial natriuretic peptide; UniProt P01160 124-134, looked up, fragment) [ANF[1-11], ANF analog available from the Peninsula Corporation]”, for which the “Potentiation of CFU-E(%)” value with CFU-E was 14.8 ± 4.6%. Besides, the “Potentiation of BFU-E(%)” value in the test on BFU-E is -1.5 ± 8.8%. Also, in test [1], the “effect on the stimulatory effect of Epo on both BFU-E and CFU-E” value (shortened to “effect on the stimulatory effect of Epo”) was “not significant”.
In the same order, the values of “α-ANF[5-28] (SSCFGGRMDRIGAQSGLGCNSFRY; ends and bridges not checked; cysteine pairing not given here; UniProt P01160 128-151, looked up, fragment) [ANF analog available from the Peninsula Corporation; a major circulatory form of ANF]” are 143 ± 26.7%, 98.5 ± 38.6% and “enhanced”.
As to erythropoietin [Epo], the “BFU-E/culture ± SEM” value with peripheral blood BFU-E (Experiment 1, Epo 250 mU/ml alone) was 7.0 ± 0.9; with peripheral blood BFU-E (Experiment 2, Epo 250 mU/ml alone) it was 14.0 ± 2.0. For the same substance, the “BFU-E and CFU-E yield” value in test [1] (2,000 mU/ml of Epo compared with 250 mU/ml of Epo, identical α-ANF[1-28] concentrations) is given as “higher”. The “effect of Epo alone on erythroid precursors” value in test [1] (Epo alone 250 mU/ml) was “stimulated both erythroid precursors”.
With “α-ANF[4-28] (RSSCFGGRMDRIGAQSGLGCNSFRY; ends and bridges not checked; cysteine pairing not given here; UniProt P01160 127-151, looked up, fragment) [ANF analog available from the Peninsula Corporation; a major circulatory form of ANF]”, the “Potentiation of CFU-E(%)” value with CFU-E stood at 208 ± 41.0%. In the test with BFU-E, the “Potentiation of BFU-E(%)” value amounted to 74.8 ± 15.3%. Further, the “effect on the stimulatory effect of Epo” value in test [1] was “enhanced”.
Turning to “α-ANF[1-28] (SLRRSSCFGGRMDRIGAQSGLGCNSFRY; not fully specified; ends and bridges not checked; UniProt P01160 124-151, looked up) [human atrial natriuretic factor peptide, obtained from the Peninsula Corporation]”, the “increase in number of peripheral blood derived BFU-E” value in the test with peripheral blood BFU-E (0.32 nM α-ANF[1-28], 250 mU/ml Epo, less than 0.3% of T cells and macrophages) is given as “three fold”. Besides, the “BFU-E/culture ± SEM” value in the test with peripheral blood BFU-E (Experiment 1, ANF 0.32nM + Epo 250 mU/ml) was 22.7 ± 1.9; with peripheral blood BFU-E (Experiment 2, ANF 0.32nM + Epo 250 mU/ml) it was 42.3 ± 6.8. Also, the “Potentiation of CFU-E(%)” value in the test on CFU-E is 100 ± 39.2%. Besides, the “increase in CFU-E” value in the test on CFU-E (Epo 250 mU/ml plus α-ANF[1-28] 0.32 nM versus Epo alone) is recorded as “two-fold”. Also, the “actual numbers of CFU-E” value in the test on CFU-E (setting [2]) was 440±176. Besides, the “Potentiation of BFU-E(%)” value in the test on BFU-E is listed as 100 ± 24.9%. The “increase in BFU-E” value in the test with BFU-E (Epo 250 mU/ml plus α-ANF[1-28] 0.32 nM versus Epo alone (FIG. 1)) is on record as “four-fold”. In addition, in the test on BFU-E (setting [2]), the “actual numbers of BFU-E” value is recorded as 103±26. Moreover, the “effect on erythroid precursors / erythroid colony formation in the absence of Epo” value in test [1] (ANF alone, no Epo (0.32 nM in FIG. 1)) was “no effect”. For the same substance, the “effect on the stimulatory effect of Epo” value in test [1] is given as “enhanced”. Further, the “increase of BFU-E and CFU-E production” value in test [1] (in the presence of Epo) is on record as “up to four fold”. Further, the “potentiation of erythropoiesis versus concentration” value is on record as “leveled off or even declined” in test [1] (α-ANF[1-28] concentrations above 0.96 nM) and “concentration dependent potentiation” in test [1] (α-ANF[1-28] increased from 0.032 nM to 0.96 nM).
With α-ANF dimer, in the test on CFU-E, the “Potentiation of CFU-E(%)” value was 25.4 ± 13.1%. Moreover, in the test on BFU-E, the “Potentiation of BFU-E(%)” value was found to be 40.2 ± 26.7%. Also, the “effect on the stimulatory effect of Epo” value in test [1] is “not significant”.
